# Marks after values point to notes of the source that are not given here.
# Experiments:
# [1] = system: Alzheimer Dementia (AD) model rats injected with beta-amyloid (Aβ1-40) and Ibotenic acid (IBA); assay: Y-shaped electronic maze test of learning-memory ability, beta-amyloid (Aβ1-40) dementia model; assay type: in vivo, rat; design: key: number of stimuli needed for 9-10 successive correct responses; settings: nimodipine 0.05 mg·kg^−1 i.v., once a day, 7 days
# Method: (§1) This experiment was carried out employing an Alzheimer Dementia (AD) model. 70 rats were divided into 7 groups consisting of 10 rats each and were anesthetized with chloral hydrate. Except for a placebo group, the remaining 6 groups were rendered dementia models by injecting 4 μg of beta-amyloid (Aβ1-40) and 1 μg of Ibotenic acid (IBA) into the hippocampus CA1 region of each rat. The placebo group was infused with an equal amount of physiological saline, instead of beta-amyloid and Ibotenic acid (IBA).
# (§2) The above-mentioned dementia model groups were subdivided into a control group to which physiological saline was administered, four experimental groups to which ginsenoside Rg2 was administered and a comparative group to which a medical dementia therapeutic agent, nimodipine was administered. Each group received the corresponding respective reagents via intravenous injection for 7 days, once a day, according to the dosages set forth in Table 7 below. […]
# On day 6 of respective reagent administration, animals were subjected to a Y-shaped electronic maze test. Learning-memory ability of rats was determined according to the following method. […] After 24 hours, the stimulus times necessary for 9 to 10-time successive and exact response of rats were recorded again as the order of memory. […]
# [2] = system: hippocampus CA1 nerve cell bodies; assay: Niss1 staining, loss of nerve cell bodies, Aβ1-40 dementia model; assay type: in vivo, rat; settings: nimodipine 0.05 mg·kg^−1 i.v., once a day, 7 days
# Method: as §1
# as §2, with “below. Herein, reagents, which are administered to experimental groups, are isomeric C-20(S) ginsenoside Rg2 and C-20(R) ginsenoside Rg2, and mixed-type C-20(SR) ginsenoside Rg2 (in the following Tables, referred to as S, R and SR, respectively).” for “below.”
# [3] = system: hippocampus nerve cells; assay: TUNEL staining, in situ cell death (apoptosis), Aβ1-40 dementia model; assay type: in vivo, rat; settings: nimodipine 0.05 mg·kg^−1 i.v., once a day, 7 days
# Method: as §1
# as §2, with “below. Herein, reagents, which are administered to experimental groups, are isomeric C-20(S) ginsenoside Rg2 and C-20(R) ginsenoside Rg2, and mixed-type C-20(SR) ginsenoside Rg2 (in the following Tables, referred to as S, R and SR, respectively).” for “below.”
# [4] = system: Bax; assay: Expression of Bax in hippocampus, Aβ1-40 dementia model; assay type: in vivo, rat; settings: nimodipine 0.05 mg·kg^−1 i.v., 7 days; 10 rats per group
# Method: as §1
# (§3) The above-mentioned dementia model groups were subdivided into a control group to which physiological saline was administered, four experimental groups to which ginsenoside Rg2 was administered and a comparative group to which a medical dementia therapeutic agent, nimodipine was administered. Each group received the corresponding respective reagents via intravenous injection for 7 days, once a day, according to the dosages set forth in Table 7 below. Herein, reagents, which are administered to experimental groups, are isomeric C-20(S) ginsenoside Rg2 and C-20(R) ginsenoside Rg2, and mixed-type C-20(SR) ginsenoside Rg2 (in the following Tables, referred to as S, R and SR, respectively).
# (§4) In addition, 24 hours after examination of learning-memory ability, the front and rear of the injected site of the hippocampus CA1 region were successively sliced and subjected to Niss1 staining, HE staining, and chemical examination of immune tissues and in situ cell death, thereby observing morphological changes of hippocampus neuron cell zones, necrosis, degree of cell loss, rate of cell death, and degree of expression of Bax/Bcl-2 and C-fos genes.
# [5] = system: Bcl-2; assay: Expression of Bcl-2 in hippocampus, Aβ1-40 dementia model; assay type: in vivo, rat; settings: nimodipine 0.05 mg·kg^−1 i.v., 7 days; 10 rats per group
# Method: as §1, §3, §4
# [6] = system: C-fos; assay: Expression of C-fos in hippocampus, Aβ1-40 dementia model; assay type: in vivo, rat; settings: nimodipine 0.05 mg·kg^−1 i.v., 7 days; 10 rats per group
# Method: as §1, §3, §4
# [7] = system: multiple infarct dementia (MID) model rats; assay: Y-shaped electronic maze test of learning-memory ability, multiple infarct dementia (MID) model; assay type: in vivo, rat; design: key: stimuli needed for 9-10 successive correct responses (memory: 24 h later); settings: nimodipine 0.05 mg·kg^−1 i.v., once a day, 7 days
# Method: On day 6 of respective reagent administration, animals were subjected to a Y-shaped electronic maze test. Learning-memory ability of rats was determined according to the following method. Firstly, the order of learning is taken as the number of stimulus times necessary for 9 to 10-time successive and exact response of rats. After 24 hours, the stimulus times necessary for 9 to 10-time successive and exact response of rats were recorded again as the order of memory. Based on the recordings thus obtained, a t-test was made between respective groups.
# This experiment was carried out employing a multiple infarct dementia (MID) model. 56 rats were divided into 7 groups consisting of 8 rats each and were anesthetized with 10% chloral hydrate. Except for a placebo group, the remaining 6 groups were established as dementia models by injecting 0.13 ml/100 g of a composite thrombosis-inducing agent into the carotid artery of each rat, restoring anatomical structures thereof and suturing skins along layers. The placebo group was injected with an equal amount of physiological saline, instead of the composite thrombosis-inducing agent. […]
# On day 6 of respective reagent administration, learning-memory ability of animals was determined according to the same manner as in Experimental Example 1.
# [8] = system: glutamate (Glu); assay: Glu-positive neurons in CPU region, MID model; assay type: in vivo, rat; settings: nimodipine 0.05 mg·kg^−1 i.v., once a day, 7 days
# Method: (§5) This experiment was carried out employing a multiple infarct dementia (MID) model. 56 rats were divided into 7 groups consisting of 8 rats each and were anesthetized with 10% chloral hydrate. Except for a placebo group, the remaining 6 groups were established as dementia models by injecting 0.13 ml/100 g of a composite thrombosis-inducing agent into the carotid artery of each rat, restoring anatomical structures thereof and suturing skins along layers. The placebo group was injected with an equal amount of physiological saline, instead of the composite thrombosis-inducing agent.
# as §3, with “The above” for “The above-mentioned”, “to” for “to the”, “Table 12” for “Table 7”, “following experiments,” for “following Tables,”, “respectively). […]” for “respectively).”
# [9] = system: Bax; assay: Bax-positive neurons in CPU region, MID model; assay type: in vivo, rat; settings: nimodipine 0.05 mg·kg^−1 i.v., once a day, 7 days
# Method: as §5
# as §3, with “The above” for “The above-mentioned”, “to” for “to the”, “Table 12” for “Table 7”, “following experiments,” for “following Tables,”, “respectively). […]” for “respectively).”
# [10] = system: Caspase-3; assay: Caspase-3-positive neurons in CPU region, MID model; assay type: in vivo, rat; settings: nimodipine 0.05 mg·kg^−1 i.v., once a day, 7 days
# Method: as §5
# as §3, with “The above” for “The above-mentioned”, “to” for “to the”, “Table 12” for “Table 7”, “following experiments,” for “following Tables,”, “respectively). […]” for “respectively).”
# [11] = system: Calpain II; assay: Calpain II-positive neurons in CPU region, MID model; assay type: in vivo, rat; settings: nimodipine 0.05 mg·kg^−1 i.v., once a day, 7 days
# Method: as §5
# as §3, with “The above” for “The above-mentioned”, “to” for “to the”, “Table 12” for “Table 7”, “following experiments,” for “following Tables,”, “respectively). […]” for “respectively).”
# [12] = system: PC12 cells; assay: MTT metabolism after glutamic acid damage of PC12 cells; assay type: cell-based; settings: nimodipine 5 pmol; 1 mmol/L glutamic acid, 20 hours; OD at 490 nm
# Method: 100 μl/well of PC12 culture having a cell density of 10^5 cells/mL was inoculated into a 96-well plate and PC12 cells were allowed to adhere to walls of the plate. Wells were divided into 6 groups to which 6 wells were assigned each.
# A serum-free medium was added to a non-treatment group, 1 mmol/L of a serum-free medium containing glutamic acid and an equal volume (1 mmol/L) of 20% 1,2-polyethylene glycol were added to a control group, 1 mmol/L of a serum-free medium containing glutamic acid and 0.1 mmol/L of respective structures of ginsenoside Rg2 were added to experimental groups, and 5 pmol of nimodipine, instead of ginsenoside Rg2, was added to a comparative group. Then, PC12 cells of respective groups were cultured at 37° C. for 20 hours.
# 20 μl/well of MTT (5 g/L) was added to respective groups and cells were continuously cultured at 37° C. for 4 hours. Then, the original medium was aspirated, and 0.1 ml/well of dimethyl sulfoxide (DMSO) was added to dissolve red granules. Next, optical density (OD) at 490 nm was measured using an enzyme-linked immuno-assay and then a t-test was made between groups.
smiles,measurement,setting,value
"COCCOC(=O)C1=C(C)NC(C)=C(C(=O)OC(C)C)C1c1cccc([N+](=O)[O-])c1 (centres unmarked) [Nimodipine, nimodipine, reference compound]",Order of Memory,[1]; 24 hours after learning,4.10 ± 4.80
same,Order of Learning,[1]; test on day 6,8.60 ± 4.58
same,Length of nerve cell body loss,[2],259.14 ± 60.36 μm
same,Rate of nerve cell death,[3],19.83 ± 2.93
same,"Expression Intensity of bax, count at grade +",[4],7
same,"Expression Intensity of bax, count at grade ++",[4],3
same,"Expression Intensity of bax, count at grade +++",[4],0**
same,"Expression Intensity of bax, count at grade −",[4],0
same,"Expression Intensity of bcl-2, count at grade +",[5],5
same,"Expression Intensity of bcl-2, count at grade ++",[5],4
same,"Expression Intensity of bcl-2, count at grade +++",[5],1**
same,"Expression Intensity of bcl-2, count at grade −",[5],0
same,"Expression Intensity of C-fos, count at grade +",[6],3
same,"Expression Intensity of C-fos, count at grade ++",[6],4
same,"Expression Intensity of C-fos, count at grade +++",[6],3*
same,"Expression Intensity of C-fos, count at grade −",[6],0
same,Order of Memory,[7],0.0 ± 0.0
same,Order of Learning,[7]; test on day 6,2.5 ± 3.70
same,Number of Glu-positive cells,[8],11.8 ± 3.89
same,Number of Bax-positive cells,[9],3.2 ± 2.47
same,Number of Caspase-3 positive cells,[10],2.3 ± 2.72
same,Number of Calpain II-positive cells,[11],3.9 ± 0.67
same,MTT (OD),[12],0.086 ± 0.017
